# Activity calls are given as the source filed them. The calls are words filed in the database; no cut-off is given here.
# Legend:
# [1] = test system: EBC-1; assay: (§1) Inhibition of cell proliferation of human EBC1 cells at 10 uM after 72 hrs by SRB assay; format: functional
# [2] = Inhibition of cell proliferation of human EBC1 cells after 72 hrs by SRB assay; settings: EBC-1, 72 h
# [3] = Inhibition of cell proliferation of human MKN45 cells after 72 hrs by SRB assay; settings: MKN-45, 72 h
# [4] = Inhibition of cell proliferation of human SNU5 cells after 72 hrs by SRB assay; settings: SNU-5, 72 h
# [5] = test system: SNU1; assay: Inhibition of cell proliferation of human SNU1 cells after 72 hrs by SRB assay; settings: SNU1, 72 h
# [6] = test system: NCI-H661; assay: Inhibition of cell proliferation of human NCI-H661 cells after 72 hrs by SRB assay; settings: NCI-H661, 72 h
# [7] = target: T1, Hepatocyte growth factor receptor (Homo sapiens, UniProt P08581); assay: Inhibition of c-Met (unknown origin)
# [8] = as §1; format: functional; settings: EBC-1, 72 h
# [9] = Inhibition of cell proliferation of human EBC1 cells at 1 uM after 72 hrs by SRB assay; settings: EBC-1, 72 h, read-out: INH
# [10] = test system: EBC-1; settings: Homo sapiens, 1 uM
# [11] = target: T1, Hepatocyte growth factor receptor; assay: Inhibition of recombinant c-Met (unknown origin) at 10 uM using poly (Glu,Tyr)4:1 substrate incubated for 60 mins by ELISA method
# [12] = target: T1, Hepatocyte growth factor receptor; assay: Inhibition of recombinant c-Met (unknown origin) using poly (Glu,Tyr)4:1 substrate incubated for 60 mins by ELISA method
# [13] = target: T1, Hepatocyte growth factor receptor; assay: Inhibition of c-Met Y1234/1235 phosphorylation in human EBC1 cells at 11 nM to 100 nM incubated for 2 hrs by Western blot method; format: cell-based
# [14] = target: T1, Hepatocyte growth factor receptor; assay: Inhibition of c-Met Y1234/1235 phosphorylation in human EBC1 cells at 0.1 uM incubated for 2 hrs by Western blot method; format: cell-based
# [15] = target: T1, Hepatocyte growth factor receptor; assay: Inhibition of c-Met in human EBC1 cells assessed as reduction in Akt S473 phosphorylation at 11 nM to 100 nM incubated for 2 hrs by Western blot method; format: cell-based
# [16] = target: T1, Hepatocyte growth factor receptor; assay: Inhibition of c-Met in human EBC1 cells assessed as reduction in ERK T202/Y204 phosphorylation at 11 nM to 100 nM incubated for 2 hrs by Western blot method; format: cell-based
# [17] = target: Macrophage-stimulating protein receptor (Homo sapiens, UniProt Q04912); assay: Inhibition of RON (unknown origin)
# [18] = target: Tyrosine-protein kinase receptor TYRO3 (Homo sapiens, UniProt Q06418); assay: Inhibition of TYRO3 (unknown origin)
# [19] = target: Tyrosine-protein kinase receptor UFO (Homo sapiens, UniProt P30530); assay: Inhibition of AXL (unknown origin)
# [20] = target: Insulin-like growth factor 1 receptor (Homo sapiens, UniProt P08069); assay: Inhibition of IGF1R (unknown origin)
# [21] = target: ALK tyrosine kinase receptor (Homo sapiens, UniProt Q9UM73); assay: Inhibition of ALK (unknown origin)
# [22] = target: Fibroblast growth factor receptor 1 (Homo sapiens, UniProt P11362); assay: Inhibition of FGFR1 (unknown origin)
# [23] = target: Platelet-derived growth factor receptor beta (Homo sapiens, UniProt P09619); assay: Inhibition of PDGFRbeta (unknown origin)
# [24] = target: Vascular endothelial growth factor receptor 1 (Homo sapiens, UniProt P17948); assay: Inhibition of FLT1 (unknown origin)
# [25] = target: Epidermal growth factor receptor (Homo sapiens, UniProt P00533); assay: Inhibition of EGFR (unknown origin)
# [26] = target: Epidermal growth factor receptor (Homo sapiens, UniProt P00533, L858R/T790M); assay: Inhibition of EGFR T790M/L858R mutant (unknown origin); format: protein assay
# [27] = target: Receptor tyrosine-protein kinase erbB-4 (Homo sapiens, UniProt Q15303); assay: Inhibition of ERBB4 (unknown origin)
# [28] = target: Ephrin type-A receptor 2 (Homo sapiens, UniProt P29317); assay: Inhibition of EPHA2 (unknown origin)
# [29] = test system: A549; assay: Inhibition of cell proliferation of human A549 cells after 72 hrs by SRB assay; format: functional, cell-based; settings: A549, 72 h
# [30] = test system: NCI-H358; assay: Inhibition of cell proliferation of human NCI-H358 cells after 72 hrs by SRB assay; format: functional, cell-based; settings: NCI-H358, 72 h
# [31] = test system: NCI-H460; assay: Inhibition of cell proliferation of human NCI-H460 cells after 72 hrs by SRB assay; format: functional, cell-based; settings: NCI-H460, 72 h
# [32] = test system: NCI-H520; assay: Inhibition of cell proliferation of human NCI-H520 cells after 72 hrs by SRB assay; format: functional, cell-based; settings: NCI-H520, 72 h
# [33] = Inhibition of cell proliferation of human PC3 cells after 72 hrs by SRB assay; format: functional, cell-based; settings: PC-3, 72 h
# [34] = Inhibition of cell proliferation of human SNU16 cells after 72 hrs by SRB assay; format: functional, cell-based; settings: SNU-16, 72 h
# [35] = test system: A549; assay: Selectivity index, ratio of IC50 for human A549 cells to IC50 for human MKN45 cells; format: functional
# [36] = test system: NCI-H358; assay: Selectivity index, ratio of IC50 for human NCI-H358 cells to IC50 for human MKN45 cells; format: functional
# [37] = test system: MKN-45; assay: Selectivity index, ratio of IC50 for human NCI-H661 cells to IC50 for human MKN45 cells; format: functional
# [38] = test system: NCI-H460; assay: Selectivity index, ratio of IC50 for human NCI-H460 cells to IC50 for human MKN45 cells; format: functional
# [39] = test system: MKN-45; assay: Selectivity index, ratio of IC50 for human NCI-H520 cells to IC50 for human MKN45 cells; format: functional
# [40] = test system: MKN-45; assay: Selectivity index, ratio of IC50 for human PC3 cells to IC50 for human MKN45 cells; format: functional
# [41] = test system: SNU-16; assay: Selectivity index, ratio of IC50 for human SNU16 cells to IC50 for human MKN45 cells; format: functional
# [42] = test system: A549; assay: Selectivity index, ratio of IC50 for human A549 cells to IC50 for human EBC1 cells; format: functional
# [43] = test system: NCI-H358; assay: Selectivity index, ratio of IC50 for human NCI-H358 cells to IC50 for human EBC1 cells; format: functional
# [44] = Selectivity index, ratio of IC50 for human NCI-H661 cells to IC50 for human EBC1 cells; format: functional
# [45] = test system: NCI-H460; assay: Selectivity index, ratio of IC50 for human NCI-H460 cells to IC50 for human EBC1 cells; format: functional
# [46] = Selectivity index, ratio of IC50 for human NCI-H520 cells to IC50 for human EBC1 cells; format: functional
# [47] = Selectivity index, ratio of IC50 for human PC3 cells to IC50 for human EBC1 cells; format: functional
# [48] = test system: SNU-16; assay: Selectivity index, ratio of IC50 for human SNU16 cells to IC50 for human EBC1 cells; format: functional
# [49] = test system: A549; assay: Selectivity index, ratio of IC50 for human A549 cells to IC50 for human SNU5 cells; format: functional
# [50] = test system: NCI-H358; assay: Selectivity index, ratio of IC50 for human NCI-H358 cells to IC50 for human SNU5 cells; format: functional
# [51] = test system: SNU-5; assay: Selectivity index, ratio of IC50 for human NCI-H661 cells to IC50 for human SNU5 cells; format: functional
# [52] = test system: NCI-H460; assay: Selectivity index, ratio of IC50 for human NCI-H460 cells to IC50 for human SNU5 cells; format: functional
# [53] = test system: SNU-5; assay: Selectivity index, ratio of IC50 for human NCI-H520 cells to IC50 for human SNU5 cells; format: functional
# [54] = test system: SNU-5; assay: Selectivity index, ratio of IC50 for human PC3 cells to IC50 for human SNU5 cells; format: functional
# [55] = test system: SNU-16; assay: Selectivity index, ratio of IC50 for human SNU16 cells to IC50 for human SNU5 cells; format: functional
smiles,measurement,setting,value
Cc1cccc(Nc2ccc(=O)n(Cc3cccc(NC(=O)OCCCCN(C)C)c3)n2)c1,inhibition,[1],inactive
CN1CCN(CCOc2cnc(-c3cccc(Cn4nc(-n5ccc6ccc(F)cc65)ccc4=O)c3)nc2)CC1,IC50,[2],0.13 µM
O=C(Nc1cccc(Cn2nc(-n3ccc4ccc(F)cc43)ccc2=O)c1)OCCCCN1CCOCC1,IC50,[2],≤ 1 µM
CN(C)CCCCOC(=O)Nc1cccc(Cn2nc(Nc3cccc(F)c3)ccc2=O)c1,inhibition,[1],inactive
CN(C)CCCCOC(=O)Nc1cccc(Cn2nc(Nc3cc(F)cc(F)c3)ccc2=O)c1,inhibition,[1],inactive
CN1CCN(CCCOC(=O)Nc2cccc(Cn3nc(-n4ccc5ccc(F)cc54)ccc3=O)c2)CC1,IC50,[2],≤ 0.1 µM
same,IC50,[3],0.7 µM
same,IC50,[4],1.2 µM
same,IC50,[5],3.9 µM
same,IC50,[6],1.6 µM
Nc1ccc(Cn2nc(Nc3ccccc3)ccc2=O)cc1,IC50,[7],10 µM
CN(C)CCCCOC(=O)Nc1cccc(Cn2nc(Nc3ccc(F)cc3)ccc2=O)c1,inhibition,[1],inactive
CN1CCN(CCCCCOC(=O)Nc2cccc(Cn3nc(-n4ccc5ccc(F)cc54)ccc3=O)c2)CC1,IC50,[2],≤ 1 µM
CN(C)CCCCOC(=O)Nc1cccc(Cn2nc(Nc3cccc(C(F)(F)F)c3)ccc2=O)c1,inhibition,[1],inactive
CN(C)CCCCOC(=O)Nc1cccc(Cn2nc(Nc3ccc(C(F)(F)F)cc3)ccc2=O)c1,inhibition,[1],inactive
COCCCOc1cnc(-c2cccc(Cn3nc(-n4ccc5ccc(F)cc54)ccc3=O)c2)nc1,IC50,[2],0.272 µM
CN(C)CCCCOC(=O)Nc1cccc(Cn2nc(-n3ccc4ccccc43)ccc2=O)c1,inhibition at 10 µM,[8],> 70%
same,inhibition at 1 µM,[9],< 50%
CN(C)CCCCOC(=O)Nc1cccc(Cn2nc(Nc3ccccc3)ccc2=O)c1,inhibition,[1],inactive
same,IC50,[2],> 10 µM
COc1cnc(-c2cccc(Cn3nc(-n4ccc5ccc(F)cc54)ccc3=O)c2)nc1,IC50,[2],> 1 µM
same,inhibition,[10],inactive
CN(C)CCCCOC(=O)Nc1cccc(Cn2nc(Nc3ccccc3C(F)(F)F)ccc2=O)c1,inhibition,[1],inactive
same,inhibition,[11],63.4%
O=c1ccc(-n2ccc3ccc(F)cc32)nn1CCOc1ccnc2cc(OCCCN3CCOCC3)ccc12,IC50,[12],0.0042 µM
same,IC50,[2],0.0172 µM
same,IC50,[3],60.7 µM
same,IC50,[4],88.1 µM
same,IC50,[6],> 10000 µM
same,inhibition,[13],Dose-dependent effect
same,inhibition,[14],Active
same,inhibition,[15],Active
same,inhibition,[16],Active
same,IC50,[17],> 1 µM
same,IC50,[18],> 1 µM
same,IC50,[19],> 1 µM
same,IC50,[20],> 1 µM
same,IC50,[21],> 1 µM
same,IC50,[22],> 1 µM
same,IC50,[23],> 1 µM
same,IC50,[24],> 1 µM
same,IC50,[25],> 1 µM
same,IC50,[26],> 1 µM
same,IC50,[27],> 1 µM
same,IC50,[28],> 1 µM
same,IC50,[29],> 10 µM
same,IC50,[30],> 10 µM
same,IC50,[31],> 10 µM
same,IC50,[32],> 10 µM
same,IC50,[33],> 10 µM
same,IC50,[34],> 10 µM
same,Ratio IC50,[35],100
same,Ratio IC50,[36],100
same,Ratio IC50,[37],100
same,Ratio IC50,[38],100
same,Ratio IC50,[39],100
same,Ratio IC50,[40],> 100
same,Ratio IC50,[41],> 100
same,Ratio IC50,[42],100
same,Ratio IC50,[43],100
same,Ratio IC50,[44],100
same,Ratio IC50,[45],100
same,Ratio IC50,[46],100
same,Ratio IC50,[47],100
same,Ratio IC50,[48],> 100
same,Ratio IC50,[49],100
same,Ratio IC50,[50],100
same,Ratio IC50,[51],100
same,Ratio IC50,[52],100
same,Ratio IC50,[53],100
same,Ratio IC50,[54],> 100
same,Ratio IC50,[55],> 100
O=C(Nc1cccc(Cn2nc(-n3ccc4ccc(F)cc43)ccc2=O)c1)OCCCCn1cccn1,IC50,[2],≤ 1 µM

# Reference: ChEMBL document CHEMBL3414492, “Enhancing the cellular anti-proliferation activity of pyridazinones as c-met inhibitors using docking analysis” (Eur J Med Chem, 2015)
